Results on one substance are retold here after patent publication US20060241019A1, “Long lasting insulin derivatives and methods thereof” (priority 2003, published 2006).

This experiment has as its system Epididymal fat cells from Wistar rats. The experiment is described as follows: Glucose uptake in epididymal fat cells. It is filed as cell-based. The conditions noted are these: D-[3-3H]Glucose incorporation, rat epididymal fat cells, 2 hour incubation.

Description: In addition, glucose uptake in an other source of adipocytes was used to evaluate the in vitro activity. […] The tissue (0.03 g/ml) is degraded by collagenase in modified HEPES solution pH 7.4 at 37° C. Test compound and/or vehicle is incubated with 500 μl aliquots in modified HEPES buffer pH 7.4 and D-[3-3H]Glucose (2.5 μCi/ml) is then added for 2 hour incubation. Test compound-induced the increase of glucose incorporation by more than 50 percent or more (≧50%) relative to the control 2 nM insulin response, indicates possible insulin receptor agonist activity. […] Compounds are screened at 10, 1, 0.1, 0.01 and 0.001 μM.

Regarding “(Phe B1)-MPA-(AEES)2-Insulin [Example VI]”, a half-maximal effect (EC50) was put at 15.4 nM.
